{"source": "patent US20170083675A1", "about": "“Method for Selecting Patient Subpopulation for Custirsen Treatment” (OncoGenex Technologies Inc., priority 2015, published 2017)", "origin": "cited, not measured here", "tested_on": "metastatic castrate resistant prostate cancer (CRPC)", "details": "second-line chemotherapy"}
{"compound": "CO[C@H]1C(=O)[C@]2(C)[C@@H](OC)C[C@H]3OC[C@@]3(OC(C)=O)[C@H]2[C@H](OC(=O)c2ccccc2)[C@]2(O)C[C@H](OC(=O)[C@H](O)[C@@H](NC(=O)OC(C)(C)C)c3ccccc3)C(C)=C1C2(C)C", "note": "[cabazitaxel]", "values": [{"measurement": "survival compared to mitoxantrone (in words)", "result": "survival advantage"}]}
